The values below are quoted from earlier work in patent publication US7195882B2, “Monoclonal antibodies specific for buprenorphine and metabolites thereof” (priority 2003, dated 2007).

For the data set the following is noted: in vivo.

As to `CO[C@]12CC[C@@]3(C[C@@H]1[C@](C)(O)C(C)(C)C)[C@H]1Cc4ccc(O[C@@H]5O[C@H](C(=O)O)[C@@H](O)[C@H](O)[C@H]5O)c5c4[C@@]3(CCN1CC1CC1)[C@H]2O5` [buprenorphine glucuronide, buprenorphine 3-O-β-D-glucuronide], the appearance in urine was 1 to 2 days.
